Data reported in EP0970046B1, “N-HYDROXY-2-(ALKYL, ARYL, OR HETEROARYL SULFANYL, SULFINYL OR SULFONYL)-3-SUBSTITUTED ALKYL, ARYL OR HETEROARYLAMIDES AS MATRIX METALLOPROTEINASE INHIBITORS” (Wyeth Holdings Corporation, priority 1997, dated 1998).
Where two headings read alike, the source gives them in different places.

Key:
Format in all cases: biochemical
MMP 9 = biological target: T1, MMP 9 (Homo sapiens, UniProt P14780); test: In Vitro Gelatinase Assay; conditions: human neutrophil gelatinase B; for IC50: read-out: MMP 9 IC 50
T1 construct: from tissue; host or cells: human neutrophils
Description: The assay is based on the cleavage of the thiopeptide substrate ((Ac-Pro-Leu-Gly(2 mercapto-4 methyl-pentanoyl)-Leu-Gly-OEt), Bachem Bioscience) by the enzyme, gelatinase, releasing the substrate product which reacts colorimetrically with DTNB ((5,5'-dithio-bis(2-nitro-benzoic acid)). The enzyme activity is measured by the rate of the color increase. The thiopeptide substrate is made up fresh as a 20 mM stock in 100% DMSO and the DTNB is dissolved in 100% DMSO as a 100 mM stock and stored in dark at room temperature. Both the substrate and DTNB are diluted together to 1 mM with substrate buffer (50 mM HEPES pH 7.5, 5 mM CaCl2) before use. […] The increase in OD405 is plotted and the slope of the line is calculated which represents the reaction rate. The linearity of the reaction rate is confirmed (r^2 >0.85). The mean (x ± sem) of the control rate is calculated and compared for statistical significance (p <0.05) with drug-treated rates using Dunnett's multiple comparison test.

MMP 13 = MMP 13 (Homo sapiens, UniProt P45452); test: MMP 13 inhibition (IC50 / manual assay; method not described)
TACE = biological target: T2, TACE (Homo sapiens, UniProt P78536); test: Procedure for Measuring TACE Inhibition; conditions: for inhibition at 1 µM: read-out: TACE % inhibition at 1 micromolar; for IC50: read-out: TACE IC 50
T2 construct: purchased Immunex
Method in brief: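 Single-concentration screen: test compound at 1 µM final, 10-min room-temperature preincubation with 1 µg/mL protease in Tris pH 7.4 buffer containing glycerol. Initial rate from linear fluorescence increase (340/420 nm) over 10 min after adding 100 µM peptidyl substrate; significance versus control rate by Dunnett's test.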

MMP 1 = biological target: T3, MMP 1 (Homo sapiens, UniProt P03956); test: In Vitro Collagenase Assay
T3 construct: human recombinant fibroblast collagenase (truncated, mw= 18,828, WAR, Radnor)
T3 sequence (P03956 100-269 limits assumed): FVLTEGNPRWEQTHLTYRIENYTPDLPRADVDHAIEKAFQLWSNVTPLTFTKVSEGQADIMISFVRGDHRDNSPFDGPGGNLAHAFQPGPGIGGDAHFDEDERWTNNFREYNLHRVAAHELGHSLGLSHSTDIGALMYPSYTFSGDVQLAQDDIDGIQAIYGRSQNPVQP
Description: The assay is based on the cleavage of a peptide substrate ((Dnp-Pro-Cha-Gly-Cys(Me)-His-Ala-Lys(NMa)-NH2), Peptide International, Inc.) by collagenase releasing the fluorescent NMa group which is quantitated on the fluorometer. Dnp quenches the NMa fluorescence in the intact substrate. […] Substrate is dissolved in methanol and stored frozen in 1 mM aliquots. […] For the assay, substrate is dissolved in HCBC buffer to a final concentration of 10 µM and collagenase to a final concentration of 5 nM. Compounds are dissolved in methanol, DMSO, or HCBC. The methanol and DMSO are diluted in HCBC to < 1.0%. Compounds are added to the 96 well plate containing enzyme and the reaction is started by the addition of substrate.
The slope of the line is calculated and represents the reaction rate.
The linearity of the reaction rate is confirmed (r^2 >0.85). The mean (x ± sem) of the control rate is calculated and compared for statistical significance (p <0.05) with drug-treated rates using Dunnett's multiple comparison test.

[1] = human recombinant fibroblast collagenase, read-out: MMP 1 IC 50

T2 sequence (P78536 215-824): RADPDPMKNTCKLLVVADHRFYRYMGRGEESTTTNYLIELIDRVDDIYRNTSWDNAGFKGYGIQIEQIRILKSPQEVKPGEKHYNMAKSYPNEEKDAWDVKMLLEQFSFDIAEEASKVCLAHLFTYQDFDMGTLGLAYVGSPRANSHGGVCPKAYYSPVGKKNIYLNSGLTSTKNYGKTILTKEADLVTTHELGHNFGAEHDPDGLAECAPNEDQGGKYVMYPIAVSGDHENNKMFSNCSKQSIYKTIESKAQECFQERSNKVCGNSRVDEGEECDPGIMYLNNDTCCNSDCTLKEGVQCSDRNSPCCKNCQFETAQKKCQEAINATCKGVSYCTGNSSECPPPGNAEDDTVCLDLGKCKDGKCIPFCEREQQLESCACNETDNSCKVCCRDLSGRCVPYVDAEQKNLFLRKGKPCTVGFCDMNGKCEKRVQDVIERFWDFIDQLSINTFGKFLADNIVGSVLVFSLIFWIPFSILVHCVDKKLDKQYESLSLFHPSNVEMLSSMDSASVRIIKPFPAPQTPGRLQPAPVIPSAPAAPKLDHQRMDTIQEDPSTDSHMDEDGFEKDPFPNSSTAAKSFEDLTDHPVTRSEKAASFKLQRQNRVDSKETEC
T1 sequence (P14780 94-707): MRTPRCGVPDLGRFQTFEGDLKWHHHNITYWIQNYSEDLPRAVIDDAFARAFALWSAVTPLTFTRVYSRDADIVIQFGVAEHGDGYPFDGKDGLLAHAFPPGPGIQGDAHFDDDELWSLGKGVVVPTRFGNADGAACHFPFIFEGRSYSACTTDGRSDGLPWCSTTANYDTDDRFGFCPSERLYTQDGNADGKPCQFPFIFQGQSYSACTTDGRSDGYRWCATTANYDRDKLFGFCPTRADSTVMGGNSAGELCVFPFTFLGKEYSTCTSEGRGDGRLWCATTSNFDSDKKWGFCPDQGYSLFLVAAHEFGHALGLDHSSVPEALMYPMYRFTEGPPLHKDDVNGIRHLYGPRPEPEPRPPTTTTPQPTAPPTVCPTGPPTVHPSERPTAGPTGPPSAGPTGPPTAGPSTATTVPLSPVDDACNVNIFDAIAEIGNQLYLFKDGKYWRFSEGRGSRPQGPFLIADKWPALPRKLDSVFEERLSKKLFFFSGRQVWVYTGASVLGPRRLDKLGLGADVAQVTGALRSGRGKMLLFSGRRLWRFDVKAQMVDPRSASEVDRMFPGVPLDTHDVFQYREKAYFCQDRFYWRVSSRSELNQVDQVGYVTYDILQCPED

Row | IC50 (MMP 9) | IC50 (MMP 13; read-out: MMP 13 IC 50) | inhibition at 1 µM (TACE) | IC50 (MMP 1; [1]) | IC50 (TACE) | SMILES | further results
1 | 8.1 nM | 5.7 nM | 25.2% | 397 nM |  | COc1ccc(S(=O)(=O)C(C)(Cc2cccc(OCCN3CCOCC3)c2)C(=O)NO)cc1 (stereo not drawn) [Example 30, N-Hydroxy-2-(4-methoxy-benzenesulfonyl)-2-methyl-3-[3-(2-morpholin-1-yl-ethoxy)-phenyl]-propionamide] | 
2 | 10.4 nM | 13.1 nM | 48.1% | 178 nM |  | COc1ccc(S(=O)(=O)C(C)(Cc2ccc(Br)cc2)C(=O)NO)cc1 (stereo not drawn) [Example 51, 3-(4-Bromo-phenyl)-N-hydroxy-2-(4-methoxy-benzenesulfonyl)-2-methyl-propionamide] | 
3 | 9.2 nM | 4.3 nM | 47.9% | 138 nM |  | CCCCCC#CCC(Cc1cccnc1)(C(=O)NO)S(=O)(=O)c1ccc(OC)cc1 (stereo not drawn) [Example 74, 2-(4-Methoxy-benzenesulfonyl)-2-pyridin-3-ylmethyl-dec-4-ynoic acid hydroxyamide] | 
4 | 83.8 nM | 20.7 nM |  | 622 nM | 826 nM | CCCCCCC(Cc1ccc(OCCN2CCCCCC2)cc1)(C(=O)NO)S(=O)(=O)c1ccc(OC)cc1 (stereo not drawn) [Example 36, 2-[4-(2-Azepan-1-yl-ethoxy)-benzyl]-2-(4-Methoxy-benzenesulfonyl)-octanoic acid hydroxyamide] | 
5 | 66 nM | 21 nM | 55.1% | 110 nM |  | COc1ccc(S(=O)(=O)C2(C(=O)NO)CCCC2)cc1 [Example 54, 1-(4-Methoxy-benzenesulfonyl)-cyclopentanecarboxylic acid hydroxyamide] | 
6 | 9 nM | 24 nM |  | 325 nM | 180 nM | COc1ccc(S(=O)(=O)C(C)(CC2CCCCC2)C(=O)NO)cc1 (stereo not drawn) [Example 16, 3-Cyclohexyl-N-hydroxy-2-(4-methoxy-benzenesulfonyl)-2-methyl-propionamide] | 
7 | 11 nM | 14 nM |  | 239 nM | 626 nM | COc1ccc(S(=O)(=O)C(C)(CC=C(C)C)C(=O)NO)cc1 (stereo not drawn) [Example 13, 2-(4-Methoxy-benzenesulfonyl)-2,5-dimethyl-hex-4-enoic acid hydroxyamide] | 
8 | 11 nM | 1 nM | 51.6% | 117 nM |  | CC#CCC(CC#CC)(C(=O)NO)S(=O)(=O)c1ccc(OC)cc1 [Example 72, 2-(4-Methoxy-benzenesulfonyl)-2-but-2-ynyl-hex-4-ynoic acid hydroxyamide] | 
9 | 16 nM |  | 65% | 299 nM |  | COc1ccc(S(=O)(=O)C(C)(CC=Cc2ccccc2)C(=O)NO)cc1 (stereo not drawn) [Example 56, 2-(4-methoxy-benzenesulfonyl)-2-methyl-5-phenyl-pent-4-enoic acid hydroxyamide] | IC50 (MMP 13): 12 nM
10 |  |  | 21% | 371 nM |  | COc1ccc(SC(C(=O)NO)C(C)C)cc1 (stereo not drawn) [Example 4, N-Hydroxy-2-(4-methoxy-phenylsulfanyl)-3-methyl-butyramide] | inhibition at 1 µM (MMP 9; read-out: MMP 9 % inhibition at 1 micromolar, 1 micromolar): 22.2%; inhibition at 1 µM (MMP 13; read-out: MMP 13 % inhibition at 1 micromolar): 17.1%
11 |  |  |  |  |  | CCCCCCCCS(=O)(=O)C(Cc1ccc(OCCN2CCCCC2)cc1)C(=O)NO (stereo not drawn) [Example 46, 2-(octane-1-sulfonyl)-3-[4-(2-piperidin-yl-ethoxy)-phenyl]propionic acid hydroxamide] | MMP 9 % inhibition at 1 micromolar (MMP 9; 1 micromolar): 79.12%; MMP 13 % inhibition at 1 micromolar (MMP 13; 1 micromolar): 84.7%; TACE % inhibition at 1 micromolar (TACE; 1 micromolar): 1.4%; MMP 1 % inhibition at 1 micromolar (MMP 1; 1 micromolar, human recombinant fibroblast collagenase): 78.9%

Row | SMILES | IC50 (MMP 9) | IC50 (MMP 13; read-out: MMP 13 IC 50) | inhibition at 1 µM (TACE) | IC50 (MMP 1; [1]) | IC50 (TACE) | further results
12 | COc1ccc(S(=O)(=O)C2(C(=O)NO)CCN(Cc3ccc(OCCN4CCCCC4)cc3)CC2)cc1 [Example 109, 4-(4-Methoxy-benzenesulfonyl)-1-[4-(2-piperidin-1-yl-ethoxy)-benzyl]-piperidine-4-carboxylic acid hydroxyamide] | 2.7 nM | 2.5 nM |  |  | 386 nM | IC50 (MMP 1): 393 nM
